Data published in US8173441B2, “Method for applying NMR for ligand discovery or as a drug screening tool” (Universiteit Leiden, priority 2001, dated 2012).
Entries after “also recorded” stand apart in the source; their conditions may differ.

Legend:
[1] = biological target: T1, C-terminal SH2 domain (CSH2) from the 85 kDa, alpha form of the regulatory subunit of bovine phosphoinositide 3′ kinase (Bos taurus, UniProt P23727); assay: Target immobilized NMR screening (TINS): 1H-NMR difference spectrum, control resin vs resin with CSH2 covalently bound; assay type: binding; conditions: 1 mM each compound in D2O, d11-Tris pH 7.5, 50 mM NaCl, CSH2 on Actigel ALD resin
T1 construct: the c-terminal SH2 domain of p85alpha was prepared as previously described by Siegal et al; made in house
T1 sequence (P23727 624-718 limits assumed): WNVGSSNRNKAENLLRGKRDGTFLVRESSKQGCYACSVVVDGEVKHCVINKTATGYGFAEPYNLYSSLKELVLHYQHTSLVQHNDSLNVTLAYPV
Excerpt: In this example, it was aimed to investigate whether binding of a small molecule to a target bound to the resin would be detectable in the ^1H spectrum. The test system utilized the C-terminal SH2 domain (CSH2) from the 85 kDa, alpha form of the regulatory subunit of bovine phosphoinositide 3′ kinase. This small (110 residues) protein domain has well characterized binding specificity.
To see whether the method of the present invention provides a mode appropriate for efficient screening of a large library of compounds, CSH2 was immobilized on a chemically activated chromatography resin of Actigel ALD by covalent attachment. Attachment occurs via primary amines on the surface of CSH2 as described in the manufacturers literature and therefore is (approximately) randomly oriented.
In detail, the c-terminal SH2 domain of p85alpha was prepared as previously described by Siegal et al. in J. Mol. Biol. 276(1998), 461-478. 11 mg of this domain CSH2 in a buffer consisting of 25 mM HEPES pH 7.5 and 100 mM NaCl was incubated with 1 ml of Actigel ALD (Sterogene, Carlsbad, Calif., USA) according to the manufacturers protocol. This amount corresponds to a 1 mM solution concentration. Unbound sites on the gel were blocked using d11-Tris (Cambridge Isotopes, Andover, Mass., USA). The control resin was derivatized exclusively with d11-Tris.
The potential ligands were dissolved in 99% D2O with d11-Tris.
In all cases, the control and experimental target containing resins were washed three times with the same mixture of test substances.
All NMR spectra were recorded on a Bruker (Bruker, Germany) DMX 600 spectrometer. Spectra typically consisted of 16 to 64 transients of 2 k complex points, were apodized using a sin^2 function and automatically baseline corrected using the supplied XWINNMR software provided by the manufacturer, Bruker, and methods described in the manufacturers literature. Difference spectra were also calculated using XWINNMR

[2] = system: 26 base synthetic double stranded 5′ biotinylated oligonucleotide (DNA); assay: TINS: 1H-NMR difference spectrum, streptavidin-sepharose resin vs resin with biotinylated oligonucleotide bound; assay type: binding; conditions: 1 mM solution in D2O; oligonucleotide on streptavidin-sepharose resin
[3] = biological target: SH2 domain (CSH2) (Bos taurus, UniProt P23727); conditions: mimic of the natural ligand; cited from earlier work
Chain of SH2 domain (CSH2) (P23727 624-718 limits assumed): as above

Row | binding to immobilized CSH2 (diminution of peaks / peaks in the difference spectrum) [1] | SMILES | binding to immobilized oligonucleotide (peaks in the difference spectrum) [2] | other results
1 | do not bind | NCC(=O)O [glycine] |  | 
2 |  | c1c[nH]cn1 [imidazole, Imidazole] | do not bind | 
3 |  | CSCC[C@H](N)C(=O)O [methionine] |  | binding to immobilized CSH2 (diminution of peaks / peaks in the difference spectrum) ([1]; listed as M): small residual peaks; also recorded: Weak binding
4 | only peaks derived from phosphotyrosine | N[C@@H](Cc1ccc(OP(=O)(O)O)cc1)C(=O)O [phosphotyrosine] | do not bind | binding to immobilized CSH2 (diminution of peaks / peaks in the difference spectrum) ([1]; listed as pY): clear diminution of the peaks; also recorded: relatively tight binding; Kd [3]: ~600 µM
5 |  | NCCCNCCCCNCCCN [spermine] | Only peaks derived from spermine; also recorded: can be detected; also recorded: only spermine peaks remain | 

Row | SMILES | binding to immobilized CSH2 (diminution of peaks / peaks in the difference spectrum) [1] | binding to immobilized oligonucleotide (peaks in the difference spectrum) [2] | other results
6 | N=C(N)NCCC[C@H](N)C(=O)O [arginine] | do not bind | do not bind | 
